# Results as given in patent US12227500B2, “Substituted pyrrolo[2,3-b]pyridines for suppressing toxic endoplasmic reticulum stress” (THE TRUSTEES OF COLUMBIA UNIVERSITY IN THE CITY OF NEW YORK, priority 2018, dated 2025).
# Like-named read-outs stand apart in the source and are kept apart here.
# Tests used:
# Experiment in all cases: Radiolabeled ATP kinase assay, panel of 60 kinases (Table S5)
# Assay type in all cases: biochemical
# [1] = target: T1, panel of 60 human kinases (Homo sapiens, UniProt O60285); details: ARK5/NUAK1; 0.1 μM; 10 μM ATP; read-out: % Enzyme Activity (relative to DSMO controls)
# T1 construct: purchased Reaction Biology Corp
# T1 sequence (O60285 1-661): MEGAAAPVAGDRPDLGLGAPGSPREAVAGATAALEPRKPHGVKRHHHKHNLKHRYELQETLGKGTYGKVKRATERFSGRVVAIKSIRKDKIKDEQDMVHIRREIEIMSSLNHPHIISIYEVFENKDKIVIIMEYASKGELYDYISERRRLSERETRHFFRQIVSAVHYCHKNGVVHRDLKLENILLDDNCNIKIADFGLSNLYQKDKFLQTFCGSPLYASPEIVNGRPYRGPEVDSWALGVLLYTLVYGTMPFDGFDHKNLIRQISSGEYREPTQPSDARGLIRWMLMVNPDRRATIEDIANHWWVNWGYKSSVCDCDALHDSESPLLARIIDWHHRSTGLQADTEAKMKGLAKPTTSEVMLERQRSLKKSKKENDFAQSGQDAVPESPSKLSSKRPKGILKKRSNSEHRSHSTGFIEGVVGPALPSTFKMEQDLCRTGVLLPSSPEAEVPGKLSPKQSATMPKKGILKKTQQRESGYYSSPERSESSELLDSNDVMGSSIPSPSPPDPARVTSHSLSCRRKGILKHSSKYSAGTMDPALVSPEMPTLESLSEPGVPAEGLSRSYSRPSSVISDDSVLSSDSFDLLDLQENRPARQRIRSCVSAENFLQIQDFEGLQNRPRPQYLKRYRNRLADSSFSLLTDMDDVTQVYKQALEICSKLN
# In short: (§1)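 Cell-free radiolabeled-ATP kinase assays across a panel of 60 kinases; each compound tested at 0.1 μM and 0.5 μM for inhibition.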
# [2] = target: T2, panel of 60 human kinases (Homo sapiens, UniProt O75460); details: ERN1/IRE1; 0.1 μM; 10 μM ATP; read-out: % Enzyme Activity (relative to DSMO controls)
# T2 construct: purchased Reaction Biology Corp
# In short: as §1
# [3] = target: T3, panel of 60 human kinases (Homo sapiens, UniProt P08581); details: c-MET; 0.1 μM; 10 μM ATP; read-out: % Enzyme Activity (relative to DSMO controls)
# T3 construct: purchased Reaction Biology Corp
# In short: as §1
# [4] = target: T4, panel of 60 human kinases (Homo sapiens, UniProt P42684); details: ABL2/ARG; 0.1 μM; 10 μM ATP; read-out: % Enzyme Activity (relative to DSMO controls)
# T4 construct: purchased Reaction Biology Corp
# In short: as §1
# [5] = target: T5, panel of 60 human kinases (Homo sapiens, UniProt P45983); details: JNK1; 0.1 μM; 10 μM ATP; read-out: % Enzyme Activity (relative to DSMO controls)
# T5 construct: purchased Reaction Biology Corp
# In short: as §1
# [6] = target: T6, panel of 60 human kinases (Homo sapiens, UniProt P49759); details: CLK1; 0.1 μM; 10 μM ATP; read-out: % Enzyme Activity (relative to DSMO controls)
# T6 construct: purchased Reaction Biology Corp
# In short: as §1
# [7] = target: T7, panel of 60 human kinases (Homo sapiens, UniProt P53778); details: P38g; 0.1 μM; 10 μM ATP; read-out: % Enzyme Activity (relative to DSMO controls)
# T7 construct: purchased Reaction Biology Corp
# T7 sequence (P53778 1-367): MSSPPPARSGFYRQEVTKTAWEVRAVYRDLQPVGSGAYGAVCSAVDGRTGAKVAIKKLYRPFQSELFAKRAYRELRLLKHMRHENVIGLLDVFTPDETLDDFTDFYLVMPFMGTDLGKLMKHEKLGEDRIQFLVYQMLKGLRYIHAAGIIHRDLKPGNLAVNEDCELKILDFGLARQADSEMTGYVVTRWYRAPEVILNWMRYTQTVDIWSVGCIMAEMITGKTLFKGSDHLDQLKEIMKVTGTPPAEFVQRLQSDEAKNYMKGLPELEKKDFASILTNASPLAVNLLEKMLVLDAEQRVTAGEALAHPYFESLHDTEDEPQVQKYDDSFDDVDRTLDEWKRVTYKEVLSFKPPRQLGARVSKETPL
# In short: as §1
# [8] = target: T8, panel of 60 human kinases (Homo sapiens, UniProt Q00534); details: 0.1 μM, 10 μM ATP, read-out: % Enzyme Activity (relative to DSMO controls)
# T8 construct: purchased Reaction Biology Corp
# In short: as §1
# [9] = target: T9, panel of 60 human kinases (Homo sapiens, UniProt Q00536); details: CDK16/cyclin Y (PCTAIRE); 0.1 μM; 10 μM ATP; read-out: % Enzyme Activity (relative to DSMO controls)
# T9 construct: purchased Reaction Biology Corp
# In short: as §1
# [10] = target: T10, panel of 60 human kinases (Homo sapiens, UniProt Q92630); details: DYRK2; 0.1 μM; 10 μM ATP; read-out: % Enzyme Activity (relative to DSMO controls)
# T10 construct: purchased Reaction Biology Corp
# T10 sequence (Q92630 1-601): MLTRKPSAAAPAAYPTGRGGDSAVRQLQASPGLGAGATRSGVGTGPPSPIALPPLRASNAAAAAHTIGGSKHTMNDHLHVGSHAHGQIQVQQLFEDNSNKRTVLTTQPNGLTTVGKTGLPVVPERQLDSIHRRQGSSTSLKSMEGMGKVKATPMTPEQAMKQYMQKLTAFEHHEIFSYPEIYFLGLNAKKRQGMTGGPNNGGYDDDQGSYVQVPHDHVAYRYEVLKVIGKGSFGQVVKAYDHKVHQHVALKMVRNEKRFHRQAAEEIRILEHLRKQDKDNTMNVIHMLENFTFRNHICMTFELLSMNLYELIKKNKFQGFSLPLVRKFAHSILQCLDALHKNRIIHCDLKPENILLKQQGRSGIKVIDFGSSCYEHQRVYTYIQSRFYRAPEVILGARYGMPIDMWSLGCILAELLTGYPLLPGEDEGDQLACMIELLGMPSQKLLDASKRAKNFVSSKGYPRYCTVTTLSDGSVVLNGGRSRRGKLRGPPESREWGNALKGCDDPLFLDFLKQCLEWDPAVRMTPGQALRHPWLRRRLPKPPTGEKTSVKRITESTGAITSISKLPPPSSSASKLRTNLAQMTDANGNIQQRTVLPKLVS
# In short: as §1
# [11] = target: T11, panel of 60 human kinases (Homo sapiens, UniProt Q9HAZ1); details: CLK4; 0.1 μM; 10 μM ATP; read-out: % Enzyme Activity (relative to DSMO controls)
# T11 construct: purchased Reaction Biology Corp
# In short: as §1
# T2 sequence (O75460 19-977): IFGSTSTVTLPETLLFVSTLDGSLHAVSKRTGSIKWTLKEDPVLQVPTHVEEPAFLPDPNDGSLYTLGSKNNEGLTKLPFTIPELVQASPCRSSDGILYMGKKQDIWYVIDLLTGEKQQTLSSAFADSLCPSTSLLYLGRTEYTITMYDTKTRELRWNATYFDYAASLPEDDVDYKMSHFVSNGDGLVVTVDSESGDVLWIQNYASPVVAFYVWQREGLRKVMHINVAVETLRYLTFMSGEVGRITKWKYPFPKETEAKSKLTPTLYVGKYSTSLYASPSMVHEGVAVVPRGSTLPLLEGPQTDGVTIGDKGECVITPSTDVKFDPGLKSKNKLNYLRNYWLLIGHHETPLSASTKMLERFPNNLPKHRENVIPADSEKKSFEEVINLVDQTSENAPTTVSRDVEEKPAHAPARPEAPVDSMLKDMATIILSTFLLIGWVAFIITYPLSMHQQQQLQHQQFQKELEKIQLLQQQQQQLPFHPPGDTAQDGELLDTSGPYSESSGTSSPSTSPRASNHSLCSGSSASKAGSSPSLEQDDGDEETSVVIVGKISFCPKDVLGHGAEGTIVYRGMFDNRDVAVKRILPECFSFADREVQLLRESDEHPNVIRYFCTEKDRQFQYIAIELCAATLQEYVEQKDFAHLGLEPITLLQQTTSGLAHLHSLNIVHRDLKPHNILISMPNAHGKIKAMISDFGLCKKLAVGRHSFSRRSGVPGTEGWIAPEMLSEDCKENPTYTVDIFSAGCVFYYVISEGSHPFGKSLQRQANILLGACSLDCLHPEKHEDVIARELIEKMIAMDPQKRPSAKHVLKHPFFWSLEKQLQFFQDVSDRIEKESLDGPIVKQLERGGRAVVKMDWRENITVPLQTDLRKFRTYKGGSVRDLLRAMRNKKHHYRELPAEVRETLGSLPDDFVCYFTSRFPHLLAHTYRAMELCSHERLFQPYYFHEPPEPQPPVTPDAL
# T6 sequence (P49759 whole entry): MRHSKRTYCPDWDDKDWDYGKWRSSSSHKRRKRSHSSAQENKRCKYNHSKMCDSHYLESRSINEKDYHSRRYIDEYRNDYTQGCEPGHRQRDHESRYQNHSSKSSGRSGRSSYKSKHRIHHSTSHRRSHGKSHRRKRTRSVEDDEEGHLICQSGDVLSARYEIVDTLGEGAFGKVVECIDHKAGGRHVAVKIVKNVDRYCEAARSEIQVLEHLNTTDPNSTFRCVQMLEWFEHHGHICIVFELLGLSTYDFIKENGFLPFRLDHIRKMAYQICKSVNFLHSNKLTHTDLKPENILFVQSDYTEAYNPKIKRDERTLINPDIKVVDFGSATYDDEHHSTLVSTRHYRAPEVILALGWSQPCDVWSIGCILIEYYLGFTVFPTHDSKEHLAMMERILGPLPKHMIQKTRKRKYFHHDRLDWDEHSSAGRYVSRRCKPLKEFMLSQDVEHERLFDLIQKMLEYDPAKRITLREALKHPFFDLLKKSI
# T4 sequence (P42684 whole entry): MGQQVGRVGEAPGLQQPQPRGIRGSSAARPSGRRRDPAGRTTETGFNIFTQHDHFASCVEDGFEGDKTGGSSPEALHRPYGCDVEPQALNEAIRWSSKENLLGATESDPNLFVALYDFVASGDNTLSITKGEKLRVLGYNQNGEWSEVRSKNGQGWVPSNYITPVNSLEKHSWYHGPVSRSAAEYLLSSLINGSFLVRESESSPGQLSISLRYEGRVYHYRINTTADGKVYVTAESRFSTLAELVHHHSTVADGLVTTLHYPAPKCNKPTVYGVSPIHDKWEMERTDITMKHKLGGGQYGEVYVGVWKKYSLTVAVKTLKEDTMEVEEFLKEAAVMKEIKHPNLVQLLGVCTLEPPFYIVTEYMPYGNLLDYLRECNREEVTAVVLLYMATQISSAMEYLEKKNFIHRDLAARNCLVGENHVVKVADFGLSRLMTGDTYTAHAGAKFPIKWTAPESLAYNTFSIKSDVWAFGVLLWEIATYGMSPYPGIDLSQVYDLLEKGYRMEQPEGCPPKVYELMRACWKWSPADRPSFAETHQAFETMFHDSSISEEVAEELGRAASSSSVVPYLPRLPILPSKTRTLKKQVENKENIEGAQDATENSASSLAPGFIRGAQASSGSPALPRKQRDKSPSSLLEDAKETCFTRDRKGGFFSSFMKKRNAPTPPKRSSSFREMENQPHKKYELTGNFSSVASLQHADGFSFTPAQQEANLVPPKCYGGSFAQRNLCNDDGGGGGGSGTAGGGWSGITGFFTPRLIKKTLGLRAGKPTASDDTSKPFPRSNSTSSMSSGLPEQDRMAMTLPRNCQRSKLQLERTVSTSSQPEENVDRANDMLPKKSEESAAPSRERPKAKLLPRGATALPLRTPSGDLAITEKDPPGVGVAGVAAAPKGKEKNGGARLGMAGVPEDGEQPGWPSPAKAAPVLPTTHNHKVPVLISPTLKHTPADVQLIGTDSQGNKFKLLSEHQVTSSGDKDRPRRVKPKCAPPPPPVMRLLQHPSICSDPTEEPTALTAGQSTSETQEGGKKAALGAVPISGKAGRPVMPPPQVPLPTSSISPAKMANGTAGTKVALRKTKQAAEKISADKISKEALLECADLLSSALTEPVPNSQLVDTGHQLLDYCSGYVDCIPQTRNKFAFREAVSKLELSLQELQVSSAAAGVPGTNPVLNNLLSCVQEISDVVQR
# T5 sequence (P45983 whole entry): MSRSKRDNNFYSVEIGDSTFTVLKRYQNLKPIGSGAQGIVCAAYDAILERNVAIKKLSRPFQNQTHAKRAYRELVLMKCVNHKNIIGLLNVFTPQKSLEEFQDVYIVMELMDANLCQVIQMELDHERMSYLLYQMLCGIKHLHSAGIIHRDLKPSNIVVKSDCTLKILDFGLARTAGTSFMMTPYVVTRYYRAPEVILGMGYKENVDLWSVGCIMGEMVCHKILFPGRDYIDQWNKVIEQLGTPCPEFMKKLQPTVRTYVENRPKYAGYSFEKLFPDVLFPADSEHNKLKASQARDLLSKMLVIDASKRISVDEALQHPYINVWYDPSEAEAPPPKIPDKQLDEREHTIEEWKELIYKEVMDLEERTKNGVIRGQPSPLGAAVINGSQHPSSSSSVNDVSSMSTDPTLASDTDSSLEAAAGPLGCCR
# T8 sequence (Q00534 whole entry): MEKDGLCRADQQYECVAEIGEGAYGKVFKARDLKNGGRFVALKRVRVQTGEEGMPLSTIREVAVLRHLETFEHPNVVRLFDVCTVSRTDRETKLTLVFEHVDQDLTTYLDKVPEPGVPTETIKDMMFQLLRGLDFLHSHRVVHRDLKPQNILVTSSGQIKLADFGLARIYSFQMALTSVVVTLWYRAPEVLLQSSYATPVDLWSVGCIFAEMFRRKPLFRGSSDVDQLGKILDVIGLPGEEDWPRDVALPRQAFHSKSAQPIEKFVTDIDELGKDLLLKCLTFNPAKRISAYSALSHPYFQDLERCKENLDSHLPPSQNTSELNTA
# T9 sequence (Q00536 whole entry): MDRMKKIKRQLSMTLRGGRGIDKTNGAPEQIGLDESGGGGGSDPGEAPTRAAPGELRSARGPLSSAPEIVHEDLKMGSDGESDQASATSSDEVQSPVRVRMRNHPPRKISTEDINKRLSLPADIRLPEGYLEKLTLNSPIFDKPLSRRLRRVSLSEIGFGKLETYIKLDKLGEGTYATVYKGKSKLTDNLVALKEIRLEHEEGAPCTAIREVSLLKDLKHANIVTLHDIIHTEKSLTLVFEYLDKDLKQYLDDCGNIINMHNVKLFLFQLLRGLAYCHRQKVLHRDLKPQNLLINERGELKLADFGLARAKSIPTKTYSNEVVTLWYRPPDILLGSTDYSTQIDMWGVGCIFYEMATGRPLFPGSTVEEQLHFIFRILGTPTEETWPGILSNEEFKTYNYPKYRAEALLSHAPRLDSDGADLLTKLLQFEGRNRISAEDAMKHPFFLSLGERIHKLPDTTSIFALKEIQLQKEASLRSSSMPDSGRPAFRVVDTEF
# T11 sequence (Q9HAZ1 whole entry): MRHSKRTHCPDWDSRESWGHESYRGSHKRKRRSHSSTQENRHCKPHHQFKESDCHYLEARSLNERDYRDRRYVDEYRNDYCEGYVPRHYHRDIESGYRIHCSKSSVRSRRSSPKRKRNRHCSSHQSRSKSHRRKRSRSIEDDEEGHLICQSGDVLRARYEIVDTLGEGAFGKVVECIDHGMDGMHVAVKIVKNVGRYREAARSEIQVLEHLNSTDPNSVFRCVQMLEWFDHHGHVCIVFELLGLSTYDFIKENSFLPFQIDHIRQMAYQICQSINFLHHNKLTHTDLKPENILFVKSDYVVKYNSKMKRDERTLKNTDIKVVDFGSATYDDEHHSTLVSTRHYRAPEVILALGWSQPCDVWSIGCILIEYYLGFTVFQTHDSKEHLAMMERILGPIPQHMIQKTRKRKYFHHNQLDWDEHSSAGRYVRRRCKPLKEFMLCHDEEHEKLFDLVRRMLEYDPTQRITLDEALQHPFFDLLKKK
Compound,remaining activity at 0.1 µM [1] [%],remaining activity at 0.1 µM [2] [%],remaining activity at 0.1 µM [3] [%],remaining activity at 0.1 µM [4] [%],remaining activity at 0.1 µM [5] [%],remaining activity at 0.1 µM [6] [%],remaining activity at 0.1 µM [7] [%],remaining activity at 0.1 µM ([8]; CDK6/cyclin D1) [%],remaining activity at 0.1 µM ([8]; CDK6/cyclin D3) [%],remaining activity at 0.1 µM [9] [%],remaining activity at 0.1 µM [10] [%],remaining activity at 0.1 µM [11] [%]
"CN1CCN(Cc2ccc(-c3cnc4[nH]cc(-c5ccc6[nH]ccc6c5)c4c3)cc2)CC1 [Compound 1, 3-(1H-Indol-5-yl)-5-(4-((4-methylpiperazin-1-yl)methyl)phenyl)-1H-pyrrolo[2,3-b]pyridine, reference compound]",5.96,108,55.9,54.9,75.3,33,99.3,47.2,66.1,94.9,44,59.2
"CN1CCN(Cc2ccc(-c3cnc4[nH]cc(-c5cccc(Cl)c5)c4c3)cc2)CC1 [Compound 7ad, 3-(3-Chlorophenyl)-5-(4-((4-methylpiperazin-1-yl)methyl)phenyl)-1H-pyrrolo[2,3-b]pyridine]",22.4,102,86.2,83.7,88.7,81.2,108,45.8,58.8,96.9,69.7,87.8
"CN1CCN(Cc2ccc(-c3cnc4[nH]cc(-c5cnn(Cc6ccccc6)c5)c4c3)cc2)CC1 [Compound 7ah, 3-(1-Benzyl-1H-pyrazol-4-yl)-5-(4-((4-methylpiperazin-1-yl)methyl)phenyl)-1H-pyrrolo[2,3-b]pyridine]",0.03,104,86.6,95.1,18.6,3.41,106,28.6,33.2,8.19,59.3,21.8
"Cc1nn(C)c(C)c1-c1c[nH]c2ncc(-c3ccc(CN4CCN(C)CC4)cc3)cc12 [Compound 7ai, 5-(4-((4-Methylpiperazin-1-yl)methyl)phenyl)-3-(1,3,5-trimethyl-1H-pyrazol-4-yl)-1H-pyrrolo[2,3-b]pyridine]",21.6,102,77.4,44.4,77.7,66.4,106,47.9,76,87.7,66.5,78.5
"CN1CCN(Cc2ccc(-c3cnc4[nH]cc(-c5ccccc5Cl)c4c3)cc2)CC1 [Compound 7as, 3-(2-Chlorophenyl)-5-(4-((4-methylpiperazin-1-yl)methyl)phenyl)-1H-pyrrolo[2,3-b]pyridine]",4.44,97.5,84.1,0.99,74.6,44.6,109,15.6,36.1,75.2,18.2,65.7
"COc1ccccc1-c1c[nH]c2ncc(-c3ccc(CN4CCN(C)CC4)cc3)cc12 [Compound 7at, 3-(2-Methoxyphenyl)-5-(4-((4-methylpiperazin-1-yl)methyl)phenyl)-1H-pyrrolo[2,3-b]pyridine]",22.9,101,86.8,21.8,102,78.4,103,7.23,46,76.9,96.8,90.4
"CN1CCN(Cc2ccc(-c3cnc4[nH]cc(-c5ccc6c(c5)OCCO6)c4c3)cc2)CC1 [Compound 7d, 3-(2,3-Dihydrobenzo[b][1,4]dioxin-6-yl)-5-(4-((4-methylpiperazin-1-yl)methyl)phenyl)-1H-pyrrolo[2,3-b]pyridine]",20.8,107,110,72.7,52.2,1.66,108,15.1,52.3,58,8.19,21.3
"CN1CCN(Cc2ccc(-c3cnc4[nH]cc(-c5ccncc5)c4c3)cc2)CC1 [Compound 7n, 5-(4-((4-Methylpiperazin-1-yl)methyl)phenyl)-3-(pyridin-4-yl)-1H-pyrrolo[2,3-b]pyridine]",39.3,107,102,91.5,85.5,34.9,114,23.4,51.8,21.5,63.6,72.2
